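GI50 is the concentration that inhibits growth by half. TGI is the concentration that stops growth completely.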
Assays:
Assay in all cases: NCI tumour cell line growth inhibition, 384-well format
786-0 renal = tested on: 786-0 renal
A498 renal = tested on: A498 renal
A549 NSCLC = tested on: A549 NSCLC
ACHN renal = tested on: ACHN renal
BT-549 breast = tested on: BT-549 breast
CAKI-1 renal = tested on: CAKI-1 renal
CCRF-CEM leukemia = tested on: CCRF-CEM leukemia
COLO 205 colon = tested on: COLO 205 colon
DU-145 prostate = tested on: DU-145 prostate
EKVX NSCLC = tested on: EKVX NSCLC
HCC-2998 colon = tested on: HCC-2998 colon
HCT-15 colon = tested on: HCT-15 colon
HL-60(TB) leukemia = tested on: HL-60(TB) leukemia
HOP-62 NSCLC = tested on: HOP-62 NSCLC
HOP-92 NSCLC = tested on: HOP-92 NSCLC
HS 578T breast = tested on: HS 578T breast
HT29 colon = tested on: HT29 colon
IGROV1 ovarian = tested on: IGROV1 ovarian
K-562 leukemia = tested on: K-562 leukemia
KM12 colon = tested on: KM12 colon
LOX IMVI melanoma = tested on: LOX IMVI melanoma
M14 melanoma = tested on: M14 melanoma
MALME-3M melanoma = tested on: MALME-3M melanoma
MCF7 breast = tested on: MCF7 breast
MDA-MB-231 breast = tested on: MDA-MB-231 breast
MDA-MB-435 melanoma = tested on: MDA-MB-435 melanoma
MDA-MB-468 breast = tested on: MDA-MB-468 breast
MOLT-4 leukemia = tested on: MOLT-4 leukemia
NCI-H226 lung = tested on: NCI-H226 lung
NCI-H23 lung = tested on: NCI-H23 lung
NCI-H322M lung = tested on: NCI-H322M lung
NCI-H460 NSCLC = tested on: NCI-H460 NSCLC
NCI-H522 lung = tested on: NCI-H522 lung
NCI/ADR-RES ovarian = tested on: NCI/ADR-RES ovarian
OVCAR-3 ovarian = tested on: OVCAR-3 ovarian
OVCAR-4 ovarian = tested on: OVCAR-4 ovarian
OVCAR-5 ovarian = tested on: OVCAR-5 ovarian
OVCAR-8 ovarian = tested on: OVCAR-8 ovarian
PC-3 prostate = tested on: PC-3 prostate
RPMI-8226 leukemia = tested on: RPMI-8226 leukemia
RXF 393 renal = tested on: RXF 393 renal
SF-268 CNS = tested on: SF-268 CNS
SF-295 CNS = tested on: SF-295 CNS
SF-539 CNS = tested on: SF-539 CNS
SK-MEL-28 melanoma = tested on: SK-MEL-28 melanoma
SK-MEL-5 melanoma = tested on: SK-MEL-5 melanoma
SK-OV-3 ovarian = tested on: SK-OV-3 ovarian
SN12C renal = tested on: SN12C renal
SNB-19 CNS = tested on: SNB-19 CNS
SNB-75 CNS = tested on: SNB-75 CNS
SR leukemia = tested on: SR leukemia
SW-620 colon = tested on: SW-620 colon
T-47D breast = tested on: T-47D breast
TK-10 renal = tested on: TK-10 renal
U251 glioblastoma = tested on: U251 glioblastoma
UACC-257 melanoma = tested on: UACC-257 melanoma
UACC-62 melanoma = tested on: UACC-62 melanoma
UO-31 renal = tested on: UO-31 renal

## CNC(=O)CN1CCC(Oc2cc3c(Nc4cccc(Cl)c4F)ncnc3cc2OC)CC1
786-0 renal
  GI50: 5.7 µM
  TGI: 24.6 µM
A498 renal
  GI50: 12.4 µM
  TGI: 27.2 µM
A549 NSCLC
  GI50: 2.31 µM
  TGI: 17.7 µM
ACHN renal
  GI50: 0.0298 µM
  TGI: 10.7 µM
BT-549 breast
  GI50: 11.7 µM
  TGI: 27.1 µM
CAKI-1 renal
  GI50: 0.915 µM
  TGI: 13.5 µM
CCRF-CEM leukemia
  GI50: 15.3 µM
  TGI: 29.9 µM
COLO 205 colon
  GI50: 15.3 µM
  TGI: 28.7 µM
DU-145 prostate
  GI50: 3.88 µM
  TGI: 43.4 µM
EKVX NSCLC
  GI50: 0.0357 µM
  TGI: 4.33 µM
HCC-2998 colon
  GI50: 14.9 µM
  TGI: 28.4 µM
HCT-15 colon
  GI50: 10.8 µM
  TGI: 22.8 µM
HL-60(TB) leukemia
  GI50: 18.9 µM
  TGI: 33 µM
HOP-62 NSCLC
  GI50: 8.39 µM
  TGI: 27.5 µM
HOP-92 NSCLC
  GI50: 4.39 µM
  TGI: 20.2 µM
HS 578T breast
  GI50: 4.07 µM
  TGI: 16.1 µM
HT29 colon
  GI50: 11.3 µM
  TGI: 24.6 µM
IGROV1 ovarian
  GI50: 0.068 µM
  TGI: 1.55 µM
K-562 leukemia
  GI50: 10.9 µM
  TGI: 23.3 µM
KM12 colon
  GI50: 18.7 µM
  TGI: 35.6 µM
LOX IMVI melanoma
  GI50: 10.7 µM
  TGI: 22.6 µM
M14 melanoma
  GI50: 15.3 µM
  TGI: 29.1 µM
MALME-3M melanoma
  GI50: 12.8 µM
  TGI: 26.7 µM
MCF7 breast
  GI50: 10.3 µM
  TGI: 24.9 µM
MDA-MB-231 breast
  GI50: 4.2 µM
  TGI: 18.1 µM
MDA-MB-435 melanoma
  GI50: 26.6 µM
  TGI: 83.5 µM
MDA-MB-468 breast
  GI50: < 0.01 µM
MOLT-4 leukemia
  GI50: 14.1 µM
  TGI: 27.2 µM
NCI-H226 lung
  GI50: 11.1 µM
  TGI: 29.9 µM
NCI-H23 lung
  GI50: 10.7 µM
  TGI: 30.8 µM
NCI-H322M lung
  GI50: < 0.01 µM
  TGI: 1.89 µM
NCI-H460 NSCLC
  GI50: 16.3 µM
  TGI: 34.1 µM
NCI-H522 lung
  GI50: 0.0493 µM
  TGI: 11.6 µM
NCI/ADR-RES ovarian
  GI50: 12.9 µM
  TGI: 29.4 µM
OVCAR-3 ovarian
  GI50: 1.95 µM
  TGI: 14.8 µM
OVCAR-4 ovarian
  GI50: 3.28 µM
  TGI: 24.3 µM
OVCAR-5 ovarian
  GI50: 0.906 µM
  TGI: 10.9 µM
OVCAR-8 ovarian
  GI50: 13.1 µM
  TGI: 43.2 µM
PC-3 prostate
  GI50: 14.7 µM
  TGI: 35 µM
RPMI-8226 leukemia
  GI50: 9.35 µM
  TGI: 21.5 µM
RXF 393 renal
  GI50: 10.1 µM
  TGI: 25.5 µM
SF-268 CNS
  GI50: 9.9 µM
  TGI: 36.4 µM
SF-295 CNS
  GI50: 14.8 µM
  TGI: 28.3 µM
SF-539 CNS
  GI50: 12.4 µM
  TGI: 25.5 µM
SK-MEL-28 melanoma
  GI50: 13.9 µM
  TGI: 27 µM
SK-MEL-5 melanoma
  GI50: 10.2 µM
  TGI: 21.9 µM
SK-OV-3 ovarian
  GI50: 0.383 µM
  TGI: 11.3 µM
SN12C renal
  GI50: 0.426 µM
  TGI: 9.66 µM
SNB-19 CNS
  GI50: 14.3 µM
  TGI: 45.2 µM
SNB-75 CNS
  GI50: 9.75 µM
  TGI: 34.1 µM
SR leukemia
  GI50: 15.1 µM
  TGI: 29.3 µM
SW-620 colon
  GI50: 13.9 µM
  TGI: 27.4 µM
T-47D breast
  GI50: 0.38 µM
  TGI: 6.28 µM
TK-10 renal
  GI50: 0.0537 µM
  TGI: 13 µM
U251 glioblastoma
  GI50: 17.2 µM
  TGI: 36.3 µM
UACC-257 melanoma
  GI50: 14.6 µM
  TGI: 28.1 µM
UACC-62 melanoma
  GI50: 13.9 µM
  TGI: 27.1 µM
UO-31 renal
  GI50: 12.4 µM
  TGI: > 100 µM

Source: PubChem BioAssay (NCI)
